Assay results published in US12384774B2, “Polymorph of CDK9 inhibitor and preparation method for polymorph and use thereof” (GenFleet Therapeutics (Shanghai) Inc., priority 2019, dated 2025).
≈ marks a conversion by molar mass, not a printed value. Counter-ions that a name gives are not always drawn. Like-named read-outs stand apart in the source and are kept apart here.

Columns and labels:
[1] = Stability test in a 60° C. drying oven (impurity, content, XRPD); assay type: physicochemical; conditions: for Content % / Total impurity %: 60° C. drying oven
Description: The crystal form A of the fumarate of the compound of formula (I) prepared in Example 9 and the crystal form 1 of the maleate of the compound of formula (I) prepared in Example 2 were placed in a 60° C. drying oven for different days (0 days, 7 days, 21 days). Samples were collected and detected to investigate the stability of the crystal forms.
The amorphous form of the free base of the compound of formula (I) was subjected to the same stability study as above-mentioned.
The crystal form 2 of the maleate of the compound of formula (I) prepared in Example 3 was placed in a 60° C. drying oven, and samples were taken and tested for different days (0 days, 7 days, 14 days and 30 days) to investigate the stability of the crystal form.

[2] = Hygroscopicity test by dynamic moisture adsorption instrument (DVS); assay type: physicochemical; conditions: for weight increasement due to moisture absorption: 25° C.
Description: Experimental method: this test was carried out by a dynamic moisture adsorption instrument. Weigh 10 mg of a solid sample, which was placed on a balance. The humidity in the sample room was controlled through the program. The sample was placed under the same temperature and different humidity conditions for 7 days, then the quality change of the tested sample was measured with relative humidity. Detection procedure: the humidity change was 0%-95%-0%; the test temperature was 25° C.
The amorphous form of the free base of the compound of formula (I) was subjected to the same hygroscopicity study as above-mentioned. […] When the relative humidity is 95%, the weight increasement due to moisture absorption can reach 9.5%, and the sample after moisture absorption is not easy to desorb.

[3] = Stability test in a 60° C. drying oven (impurity, content, XRPD); assay type: physicochemical; conditions: for Content % / Total impurity %: 60° C. drying oven, 21 days; for change in content or in the characteristic peaks of the XRPD pattern: after 21 days at high temperature (60° C.)
[4] = Solubility test in PBS buffers of different pH, water and normal saline at room temperature; assay type: physicochemical; conditions: for solubility: thermodynamic from solid
Description: Weigh about 50 mg of the crystal form 1 of the maleate of the compound of formula (I) prepared in Example 2, which was added into different bottles. Then PBS buffers with different pH values were prepared. Each of them was added in batches with a small amount into each of the above bottles at room temperature till the crystal form in each bottle was just dissolved. The total amount of the solvent was recorded and the solubility was calculated.
The amorphous form of the free base of the compound of formula (I) was subjected to the same solubility study as above-mentioned.

[5] = system: Acute myeloid leukemia cells MV-4-11; assay: Cell proliferation inhibition, CellTiter-Glo; assay type: cell-based; conditions: MV-4-11 cells
Description: Weigh 5.61 mg of the crystal form 1 of the maleate of the compound of formula (I) prepared in Example 2, which was dissolved it in 74.7 μL of DMSO.
Configure 1000× compound storage plate (or called 1000× storage medicine plate): the 100 mM compound storage solution was diluted with DMSO. The starting concentration was 10 mM and 9 concentration gradients (th concentration of the storage solution was 10 mM, 3 mM, 1 mM, 0.3 mM, 0.1 mM, 0.03 mM, 0.01 mM, 0.001 mM and 0.0001 mM respectively) were set. The compound storage plate was sealed with a sealing tape, and stored in a refrigerator at −20° C. for later use.
Acute myeloid leukemia cells MV-4-11 (purchased from ATCC) were selected and seaded into a 96-well plate (140 μL per well) at a density of 5000/well and cultured overnight in a incubator with 37° C., 5% CO2.
1000×storage medicine plates were taken out and melt at room temperature while avoiding light. Then prepare 15× intermediate medicine plates (78.8 μL of medium and 1.2 μL of medicine-containing DMSO storage solution), which were mixed well. 10 μL of the medicine-contained medium (15×) was added into the 96-well cell plates (the final concentration was 10 μM, 3 μM, 1 μM, 0.3 μM, 0.1 μM, 0.03 μM, 0.01 μM, 0.001 μM and 0.0001 μM, respectively, and the final concentration of DMSO was […]), which were gently patted to well-mixed, then put it in a incubator with 37° C., 5% CO2, and continued to incubate for 24 hours.
Then the CellTiter-Glo method was used to detect vitality of the cell under the conditions of each drug concentration, and the rate of cell proliferation inhibition under the corresponding conditions was calculated.

[6] = Hygroscopicity observation on the hydrochloride (Comparative Example 2); assay type: physicochemical; conditions: solid in crystal form obtained with hydrochloric acid
Description: Similarly, by using the method described in Example 1 or Example 9, the according salt of the compound of formula (I) were prepared with the hydrochloric acid instead of the maleic acid or the fumaric acid.

[7] = amorphous form, 60° C., 7th and 14th day

SMILES | Content % ([1]; 0 day) | Total impurity % ([1]; 0 day) | Content % ([1]; 7 days) | Total impurity % ([1]; 7 days) | hygroscopicity (in words) ([2]; environment humidity RH=60%) | weight increasement due to moisture absorption ([2]; environment humidity RH=60%) | Content % [3] | Total impurity % [3] | change in content or in the characteristic peaks of the XRPD pattern [3] | Solubility (S, mg/mL) ([4]; PBS pH 6.5, room temperature) | Solubility (S, mg/mL) ([4]; PBS pH 7.0, room temperature) | Solubility (S, mg/mL) ([4]; PBS pH 7.5, room temperature) | Solubility (S, mg/mL) ([4]; water, room temperature) | Content % ([1]; 14 days) | Total impurity % ([1]; 14 days) | also measured
COC[C@@H](C)N[C@H]1CC[C@H](Nc2cc(-c3csc(NCC4(C#N)CCOCC4)n3)c(Cl)cn2)CC1 [crystal form A of the fumarate of the compound of formula (I] | 99.38% | 0.62% | 99.31% | 0.69% | weak | about 1% | 99.22% | 0.78% | basically no change | – | – | – | – | – | – | –
COC[C@@H](C)N[C@H]1CC[C@H](Nc2cc(-c3csc(NCC4(C#N)CCOCC4)n3)c(Cl)cn2)CC1 [crystal form 1 of the maleate of the compound of formula (I)] | 99.91% | 0.09% | 99.88% | 0.12% | weak | about 1% | 99.86% | 0.14% | basically no change | 45 mg/mL | 57 mg/mL | 62 mg/mL | 31 mg/mL | – | – | effect on cell growth ([5]; concentration range 0.0001 μM to 0.01 μM): no significant changes in cell growth; effect on cell growth ([5]; concentration range 0.03 μM to 10 μM): significant inhibitory effect
COC[C@@H](C)N[C@H]1CC[C@H](Nc2cc(-c3csc(NCC4(C#N)CCOCC4)n3)c(Cl)cn2)CC1 [listing 1 of 2 here] | – | – | – | – | – | – | – | – | – | – | – | – | – | – | – | solubility ([4]; PBS buffer, pH 6, aqueous buffer, PBS 6.0, room temperature, read-out: Solubility (S, mg/mL)): 41 mg/mL (≈ 79 mM); solubility ([4]; PBS buffers of different pH, water and normal saline, aqueous buffer, PBS 6.0-7.5, water, normal saline, read-out: solubility in each of the above-mentioned solvents (summary)): 30 to 60 mg/mL (≈ 57.8 to 116 mM); solubility ([4]; normal saline, saline or isotonic, normal saline, room temperature, read-out: Solubility (S, mg/mL)): 50 mg/mL (≈ 96.3 mM); IC50 ([5]; Homo sapiens, MV4-11, 24 hours incubation, CellTiter-Glo, read-out: absolute half inhibitory concentration (ABsIC50)): 32 nM
COC[C@@H](C)N[C@H]1CC[C@H](Nc2cc(-c3csc(NCC4(C#N)CCOCC4)n3)c(Cl)cn2)CC1 [crystal form 2] | 99.13% | 0.87% | 98.56% | 1.44% | – | – | – | – | – | – | – | – | – | 97.73% | 2.27% | characteristic peaks of the XRPD pattern ([3]; after 14 days at high temperature (60° C.)): basically unchanged
COC[C@@H](C)N[C@H]1CC[C@H](Nc2cc(-c3csc(NCC4(C#N)CCOCC4)n3)c(Cl)cn2)CC1 [listing 2 of 2 here] | – | – | – | – | – | – | – | – | – | – | – | – | – | – | – | hygroscopicity (in words) [6]: very hygroscopic
COC[C@@H](C)N[C@H]1CC[C@H](Nc2cc(-c3csc(NCC4(C#N)CCOCC4)n3)c(Cl)cn2)CC1 [free base of the compound of formula (I), 4-(((4-(5-chloro-2-(((1R,4r)-4-(((R)-1-methoxypropyl-2-yl)amino)cyclohexyl)amino)pyridin-4-yl)thiazol-2-yl)amino)methyl)tetrahydro-2H-pyran-4-carbonitrile] | 99.50% | 0.50% | 98.42% | 1.58% | – | – | – | – | – | about 15.10 mg/mL | about 12.5 mg/mL | about 0.44 mg/mL | about 0.1 mg/mL | 97.44% | 2.56% | change in the character (appearance) [1, 7]: changes from a yellow solid to a hard gelatinous substance; solubility ([4]; PBS buffer, pH 7.2, aqueous buffer, PBS pH 7.2, room temperature, read-out: Solubility (S, mg/mL)): ~10.1 mg/mL; solubility compared with crystal form 1 of the maleate (in words) ([4]; same experiment conditions, amorphous free base): significant lower solubility; hygroscopicity (in words) ([2]; environment humidity higher than 60%, amorphous form): quite strong hygroscopicity; weight increasement due to moisture absorption ([2]; relative humidity 95%): 9.5%; stability (in words) [3, 7]: poor stability
